{
  "source": "patent US20050239899A1",
  "about": "“Beta-secretase inhibitors” (priority 2002, published 2005)",
  "key": {"rhBACE": {"biological_target": "T1, rhBACE (Homo sapiens, UniProt P56817)", "T1 construct": "purchased R&D systems 931-AS", "T1 sequence (P56817 46-501)": "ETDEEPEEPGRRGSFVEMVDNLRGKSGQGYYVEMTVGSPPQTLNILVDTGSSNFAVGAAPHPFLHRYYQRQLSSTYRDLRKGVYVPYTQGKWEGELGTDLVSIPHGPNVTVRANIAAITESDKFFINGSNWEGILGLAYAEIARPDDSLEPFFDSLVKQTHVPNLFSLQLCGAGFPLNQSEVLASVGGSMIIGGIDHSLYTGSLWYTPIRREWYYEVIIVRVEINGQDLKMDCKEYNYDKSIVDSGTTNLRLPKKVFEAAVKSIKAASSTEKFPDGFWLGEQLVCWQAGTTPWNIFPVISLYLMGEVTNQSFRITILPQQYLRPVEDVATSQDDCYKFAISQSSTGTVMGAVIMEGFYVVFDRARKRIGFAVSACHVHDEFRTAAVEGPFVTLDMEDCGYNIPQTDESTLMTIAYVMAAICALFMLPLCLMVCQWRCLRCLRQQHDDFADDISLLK", "test": "Fluorescence BACE assay", "assay_type": "biochemical", "conditions": "EDANS/Dabcyl peptide substrate, pH 5, 2 hours at 37 C", "description": "The inhibitory activity of the compounds of the invention was shown in an in vitro assay, namely a fluorescence BACE assay.\nThe assay was set up in triplicate wells of 96 well black plate. rhBACE was diluted to 1 unit/well in […] (PBS +0.5% Triton-X 100, pH 5). BACE enzyme (obtained from R&D systems (ca.No. 931-AS), reference: Vasser et al., 1999, Science 286, 735-741) was incubated with various concentrations of inhibitor compound (10 nM to 500 µM) for 5 min; Reaction was started by adding peptide substrate (obtained from BACHEM (cat. No. M-2470), reference: Ermolieff et al., Biochemistry 39 (2000) 12450-56) with EDANS/Dabcyl labels. After incubation for 2 hours at 37 C the results were read in fluoroplate reader at 355 nm/486 nm."}, "cells": {"system": "cells", "test": "cellular assay (activity in cells)", "assay_type": "cell-based", "source_text": "As combined pharmacophore, for example, a combination of common pharmacophore for aspartyl proteases and a surface-based (surf2lead®) pharmacophore of the crystallized beta-secretase:OM922 complex can be used. For the common pharmacophore of the aspartyl proteases the active center was employed for generation of the pharmacophore. For the surf2lead approach the surface of the active center of the beta-secretase: OM922 complex crystallized with inhibitor was used for generation of the pharmacophore. A query for PHACIR screening was generated from a combination of the two pharmacophores. The compounds of the focused library identified by virtual screening then can be subjected to an in vitro assay, e.g. a fluorescence BACE assay, or a cellular assay in order to determine its possible inhibitory action."}},
  "data": [
    {"smiles": "O=C(Nc1cc(-c2ccc(Cl)cc2)nn1-c1ccc(I)cc1)C1CCC1", "note": "[ID1]", "values": [
      {"measurement": "IC50", "setting": "rhBACE", "result": 45, "unit": "µM"}
    ]},
    {"smiles": "Oc1c(Cl)cc(Cl)cc1/C=N/Nc1c(Cl)cncc1Cl", "note": "[ID2]", "values": [
      {"measurement": "IC50", "setting": "rhBACE", "result": 29, "unit": "µM"}
    ]},
    {"smiles": "C=CCn1c(SCc2ccc(Cl)cc2)nc2sc3c(c2c1=N)CCCC3", "note": "[ID3]", "values": [
      {"measurement": "IC50", "setting": "rhBACE", "result": 10, "unit": "µM"},
      {"measurement": "activity in cells / cell permeability", "setting": "cells", "result": "especially cell-permeable active compounds"}
    ]},
    {"smiles": "C/C(=N\\OC(=O)c1c(-c2c(Cl)cccc2Cl)noc1C)c1ccccc1O", "note": "[ID4]", "values": [
      {"measurement": "IC50", "setting": "rhBACE", "result": "140 to 170", "unit": "µM"}
    ]},
    {"smiles": "Oc1c(Cl)cc(Cl)cc1/C=N/Nc1ncnc2sc3c(c12)CCCC3", "note": "[ID5]", "values": [
      {"measurement": "IC50", "setting": "rhBACE", "result": 53, "unit": "µM"}
    ]},
    {"smiles": "O=[N+]([O-])c1cc(C(F)(F)F)cc([N+](=O)[O-])c1N/N=C/c1cc(Cl)cc(Cl)c1O", "note": "[ID6]", "values": [
      {"measurement": "IC50", "setting": "rhBACE", "result": 39.3, "unit": "µM"}
    ]},
    {"smiles": "C/C(=N\\Nc1ccccc1)c1cc(Cl)cc(Cl)c1O", "note": "[ID7]", "values": [
      {"measurement": "IC50", "setting": "rhBACE", "result": 14.4, "unit": "µM"},
      {"measurement": "activity in cells / cell permeability", "setting": "cells", "result": "especially cell-permeable active compounds"}
    ]}
  ]
}
